System: patients with head and neck cancer
Procedure: A phase II, multicentre, randomised, double-blind, placebo-controlled study was performed to compare the efficacy of the mucoadhesive buccal tablets of Example 1D, comprising 50 μg of clonidine hydrochloride, applied once daily to that of placebo in the prevention and treatment of […] following radiotherapy in patients with head and neck cancer (suffering from a newly diagnosed squamous cell carcinoma of the oral cavity, oropharynx, hypopharynx or larynx). These patients received, within 15 weeks after curative surgery, a cumulative radiation dose of radiation ranging from 50 to 70 Gray in oral cavity, based on a daily dosing between 1.8 and 2.2 Gy, combined with platinum-based chemotherapy, based on a weekly or tri-weekly cycle. Clonidine was administered in the form of a mucoadhesive tablet that was applied into the mouth, on the upper gum, for about 30 seconds, after which it remained in place for several hours. The treatment with clonidine hydrochloride started from 1 to 3 days before radiotherapy until the end of radiotherapy, for up to 8 weeks. Patients were evaluated twice a week during the radiotherapy period, then one month after stop of radiotherapy.

[1] = mucoadhesive buccal tablet of Example 1D, 50 μg clonidine hydrochloride once daily, up to 8 weeks, radiotherapy plus platinum-based chemotherapy, placebo 12.9%

Cl.Clc1cccc(Cl)c1NC1=NCCN1 [Clonidine]
occurrence of nausea (additional identical experiment using 100 μg of clonidine hydrochloride): 46.9%
Cough (reported adverse side effect, occurrence) [1]: 5.5%
Fatigue (reported adverse side effect, occurrence) [1]: 9.1%
Headache (reported adverse side effect, occurrence) (mucoadhesive buccal tablet of Example 1D, 50 μg clonidine hydrochloride once daily, up to 8 weeks, radiotherapy plus platinum-based chemotherapy, placebo 14.5%): 9.1%
Diarrhoea (reported adverse side effect, occurrence) (mucoadhesive buccal tablet of Example 1D, 50 μg clonidine hydrochloride once daily, up to 8 weeks, radiotherapy plus platinum-based chemotherapy, placebo 21.0%): 12.7%
Asthenia (reported adverse side effect, occurrence) (mucoadhesive buccal tablet of Example 1D, 50 μg clonidine hydrochloride once daily, up to 8 weeks, radiotherapy plus platinum-based chemotherapy, placebo 24.2%): 16.4%
Vomiting (reported adverse side effect, occurrence) (mucoadhesive buccal tablet of Example 1D, 50 μg clonidine hydrochloride once daily, up to 8 weeks, radiotherapy plus platinum-based chemotherapy, placebo 38.7%): 25.5%
Nausea (reported adverse side effect, occurrence) (mucoadhesive buccal tablet of Example 1D, 50 μg clonidine hydrochloride once daily, up to 8 weeks, radiotherapy plus platinum-based chemotherapy, placebo 71.0%): 52.7%

Reference: patent US10675271B2, “Clonidine and/or clonidine derivatives for use in the prevention and/or treatment of adverse side effects of chemotherapy” (ONXEO, priority 2015, dated 2020)
